# Measurements: patent US20250186463A1, “ABIRATERONE DECANOATE PRODRUGS AND USE IN THERAPY” (PROPELLA THERAPEUTICS, INC., priority 2022, published 2025)
# Experiments:
# [1] = Phase 1/2a study: plasma pharmacokinetics; type: in vivo, human; settings: cohort 3 (720 mg), patient 08-1301, all values
# Experimental: Formulations and dosing regimen: The formulation used in the study (abiraterone decanoate for intramuscular [i.m.] injection) is a solution formulation of abiraterone decanoate at a concentration of 180 mg/mL and will be provided as a 10 mL vial containing 990 mg of abiraterone decanoate in 5.5 mL of solution. See further details of the formulations in Example 2 (for each milliliter: Abiraterone Decanoate, about 180 mg/mL; Benzyl Alcohol, about 100 mg/mL; Benzyl Benzoate, about 200 mg/mL; and Corn oil, q.s. to 1 mL). Abiraterone Decanoate will be administered as an i.m. injection every 84 days (±3 days). Dose escalation will proceed with a modified Fibonacci sequence. Based on emerging data, intermediate doses may be evaluated.
# Pharmacokinetic results: the partial results from pharmacokinetic analysis for cohorts 1, 2, 3, 4, and 5 (180 mg, 360 mg, 720 mg, 1260 mg, and 1800 mg abiraterone decanoate, respectively) are shown in FIGS. 4A-4E. […] And for abiraterone decanoate, minimal increase in AbiDec for 08-1301 was observed which declined to 0 ng/ml thereafter.
# [2] = Abiraterone plasma exposure in monkeys, vehicle comparison; type: in vivo; settings: corn oil 70%, benzyl benzoate 20%, same concentration and dose
# Source text: In some embodiments, the abiraterone prodrug formulation can comprise a combination of benzyl alcohol and benzyl benzoate as cosolvents. In some embodiments, the benzyl alcohol can be present in an amount of about 0-20% (e.g., 0-15% or 0-10%, such as about 10%) of the solvent, and benzyl benzoate can be present in an amount of about 0-50% (e.g., 0-35% or 0-30%, such as about 20%) of the solvent, wherein the balance of the solvent can be any one or more of the pharmaceutically acceptable oil described herein, such as corn oil, castor oil, sesame oil, peanut oil, cottonseed oil, and/or Miglyol 812, etc.
# [3] = Animal studies of intramuscular abiraterone decanoate: liver toxicity; type: in vivo; settings: intramuscular administration, tested doses
smiles,measurement,setting,value
CCCCCCCCCC(=O)O[C@H]1CC[C@@]2(C)C(=CC[C@@H]3[C@@H]2CC[C@]2(C)C(c4cccnc4)=CC[C@@H]32)C1 [abiraterone decanoate],plasma abiraterone values,[1],below the LLOQ
same,abiraterone plasma exposure versus corn oil 90% / benzyl alcohol 10% formulation,[2],much higher abiraterone plasma exposure
same,liver toxicity,[3],no liver toxicity was observed
